# Measurements taken from publication PMC11550483 (2024).
# Where a SMILES comes first, the peptide text is derived from it.
# Biological target: SARS2 M^pro (Severe acute respiratory syndrome coronavirus 2, UniProt P0DTD1, P3395H)
# Assay type: biochemical, SARS-CoV-2
row,SMILES,% inhibition (20 µM) biochemical [%]
1,"O=C(CC(SCc1ccco1)c1ccc(Cl)cc1)c1cccs1 (centres unmarked) [MWAC-0001874, Clc1ccc(cc1)C(CC(=O)c2cccs2)SCc3occc3]",0
2,"Cc1ccc(Cn2cc(SCC(=O)NCc3ccco3)c3ccccc32)cc1 [MWAC-0001818, Cc1ccc(Cn2cc(SCC(=O)NCc3occc3)c4ccccc24)cc1]",3.38
3,"COC(=O)CSC1=C(C#N)C(c2ccccc2OC)CC(=O)N1 (centres unmarked) [MWAC-0001735, COC(=O)CSC1=C(C#N)C(CC(=O)N1)c2ccccc2OC]",4.32
4,"Cc1cc(C(=O)CCl)c(C)n1Cc1ccco1 [MWAC-0001817, Cc1cc(C(=O)CCl)c(C)n1Cc2occc2]",62
5,"O=C1CSC(=S)N1Cc1cccnc1 [MWAC-0001797, O=C1CSC(=S)N1Cc2cccnc2]",7
6,"C=CCN1C(=O)C(O)(CC(=O)c2cccc(OC)c2)c2cc(Br)ccc21 (centres unmarked) [MWAC-0001778, COc1cccc(c1)C(=O)CC2(O)C(=O)N(CC=C)c3ccc(Br)cc23]",2.82
7,"N#C/C(=C\c1c[nH]c2ccccc12)C(=O)NC1CC1 [MWAC-0001828, O=C(NC1CC1)\C(=C\c2c[nH]c3ccccc23)\C#N]",11
8,"O=C(CCl)Nc1cn(-c2ccccc2)nc1-c1ccc(F)cc1 [MWAC-0001848, Fc1ccc(cc1)c2nn(cc2NC(=O)CCl)c3ccccc3]",13
9,"COc1cc(C#N)ccc1OCc1ccc(Cl)cc1 [MWAC-0001772, COc1cc(ccc1OCc2ccc(Cl)cc2)C#N]",0.301
10,"CSCCC(C=O)NC(=O)C(CC(C)C)NC(=O)C(CC(C)C)NC(C)=O (stereo not drawn) [MWAC-0001889, CSCCC(NC(=O)C(CC(C)C)NC(=O)C(CC(C)C)NC(=O)C)C=O] (Ac-Leu-Leu-Met-aldehyde; configuration not given here)",99
11,"O=C(CCl)NC(NC(=O)CCl)c1ccccc1F [MWAC-0001862, Fc1ccccc1C(NC(=O)CCl)NC(=O)CCl]",40
12,"CC1CCN(C(=O)/C=C/c2cccc3ccccc23)CC1 [MWAC-0001755, CC1CCN(CC1)C(=O)\C=C\c2cccc3ccccc23]",4.32
13,"COc1ccc(-c2cc(=O)c3ccccc3s2)cc1 [MWAC-0001878, COc1ccc(cc1)C2=CC(=O)c3ccccc3S2]",0
14,"CCOC(=O)C(=O)Nc1sc(C(=O)Nc2cccc(Cl)c2)c(C)c1C(=O)OC [MWAC-0001843, CCOC(=O)C(=O)Nc1sc(C(=O)Nc2cccc(Cl)c2)c(C)c1C(=O)OC]",5.71
15,"COCCCNC(=O)/C(C#N)=C/c1cc(C)n(-c2ccc(F)cc2)c1C [MWAC-0001826, COCCCNC(=O)\C(=C\c1cc(C)n(c1C)c2ccc(F)cc2)\C#N]",5
16,"O=C(CCCN1C(=O)/C(=C\c2ccco2)SC1=S)Nc1cc(Cl)ccc1O [MWAC-0000351, Oc1ccc(Cl)cc1NC(=O)CCCN2C(=S)S\C(=C\c3occc3)\C2=O]",2.86
17,"O=C(COc1ccccc1)Nc1scc(-c2ccccc2)c1C(=O)NCc1ccco1 [MWAC-0001777, O=C(COc1ccccc1)Nc2scc(c3ccccc3)c2C(=O)NCc4occc4]",3.67
18,"CCOC(=O)N1CCN(c2nncc(-c3ccc4ccccc4c3)n2)CC1 [MWAC-0001757, CCOC(=O)N1CCN(CC1)c2nncc(n2)c3ccc4ccccc4c3]",38
19,"Cc1ccc(OCCN2C(=O)C(=O)c3ccccc32)cc1 [MWAC-0001827, Cc1ccc(OCCN2C(=O)C(=O)c3ccccc23)cc1]",4.54

row,SMILES,% inhibition (20 µM) biochemical [%]
1,"CC(NC(=O)CCl)C1COc2ccccc2O1 (centres unmarked) [MWAC-0001857, CC(NC(=O)CCl)C1COc2ccccc2O1]",26
2,"NC(=O)c1ccccc1NC(=O)/C=C/C(=O)O [MWAC-0001765, NC(=O)c1ccccc1NC(=O)\C=C\C(=O)O]",6.4
3,"O=C(CCl)NC(c1ccccc1)c1ccc(Cl)cc1 (centres unmarked) [MWAC-0001861, ClCC(=O)NC(c1ccccc1)c2ccc(Cl)cc2]",67
4,"CCOc1cc(S(=O)(=O)N2c3ccccc3CC2C)ccc1Cl (centres unmarked) [MWAC-0001761, CCOc1cc(ccc1Cl)S(=O)(=O)N2C(C)Cc3ccccc23]",8
5,"CCOC(=O)/C=C(\C)N1N=C(c2ccccc2)CC1c1ccc(N(C)C)cc1 (centres unmarked) [MWAC-0001831, CCOC(=O)\C=C(/C)\N1N=C(CC1c2ccc(cc2)N(C)C)c3ccccc3]",5.67
6,"COc1cccc(Nc2ccc3ccccc3c2)c1 [MWAC-0001865, COc1cccc(Nc2ccc3ccccc3c2)c1]",0
7,"CCOc1ccccc1C1CC(c2ccccc2)Nc2ncnn21 (centres unmarked) [MWAC-0001745, CCOc1ccccc1C2CC(Nc3ncnn23)c4ccccc4]",5.37
8,"O=Cc1ccccc1OCc1ccc2c(c1)OCO2 [MWAC-0001842, O=Cc1ccccc1OCc2ccc3OCOc3c2]",11
9,"O=C(CN1C(=O)C(=O)N(Cc2ccccc2)C1=O)Nc1cc(Cl)cc(Cl)c1 [MWAC-0001847, Clc1cc(Cl)cc(NC(=O)CN2C(=O)N(Cc3ccccc3)C(=O)C2=O)c1]",0.75
10,"N#Cc1ccccc1CN1C(=O)C(=O)c2ccccc21 [MWAC-0001764, O=C1N(Cc2ccccc2C#N)c3ccccc3C1=O]",7
11,"CCc1cccc2c(/C=C3\C(=O)Nc4ccccc43)c[nH]c12 [MWAC-0001851, CCc1cccc2c(\C=C\3/C(=O)Nc4ccccc34)c[nH]c12]",2.36
12,"COc1ccc(C(CNC(=O)CCl)N2CCCCC2)cc1 (centres unmarked) [MWAC-0001849, COc1ccc(cc1)C(CNC(=O)CCl)N2CCCCC2]",33
13,"C=CCN1C(=O)C(O)(CC(=O)c2ccc(Cl)s2)c2cc(Br)ccc21 (centres unmarked) [MWAC-0001788, OC1(CC(=O)c2ccc(Cl)s2)C(=O)N(CC=C)c3ccc(Br)cc13]",7.53
14,"CC1=CC(C)(C)N2C(=O)C(=O)c3cc(OC(=O)c4cccc(F)c4)cc1c32 [MWAC-0001768, CC1=CC(C)(C)N2C(=O)C(=O)c3cc(OC(=O)c4cccc(F)c4)cc1c23]",2.41
15,"O=C1N(Cc2ccccc2)c2ccccc2C12NNc1ccccc1O2 (centres unmarked) [MWAC-0001855, O=C1N(Cc2ccccc2)c3ccccc3C14NNc5ccccc5O4]",2.76
16,"CCCN1C(=O)C2(c3cc(C)ccc31)N1CC3(C)CN2CC(C)(C1)C3=O (centres unmarked) [MWAC-0001760, CCCN1C(=O)C2(N3CC4(C)CN2CC(C)(C3)C4=O)c5cc(C)ccc15]",7
17,"Cc1ccc(C(NC(=O)CCl)c2cccs2)cc1 (centres unmarked) [MWAC-0001859, Cc1ccc(cc1)C(NC(=O)CCl)c2cccs2]",60
18,"CC(C)c1cc(NC(=O)CCl)cc(C(C)C)c1O [MWAC-0001888, CC(C)c1cc(NC(=O)CCl)cc(C(C)C)c1O]",80
19,"Cc1ccc2nc(-c3ccc(NC(=O)CCOc4ccccc4)cc3)sc2c1 [MWAC-0001713, Cc1ccc2nc(sc2c1)c3ccc(NC(=O)CCOc4ccccc4)cc3]",14
